Reference: patent publication US20070172521A1, “Levetiracetam formulations and methods for their manufacture” (priority 2006, published 2007)

Assay: Particle size of the levetiracetam used
Format: physicochemical
Settings: levetiracetam used in the examples
Description: In order to avoid possible handling difficulties, the levetiracetam used preferably comprises particles having a particle size distribution such that d(0.1) is Not Less Than (NLT) about 0.6 μm, d(0.5) is from about 10 to about 30 μm, and d(0.9) is Not More Than (NMT) about 65 μm. In addition, the Bulk Density is NLT 0.2 g/cm^3, and the Tapped Density is NLT 0.35 g/cm^3. […] To minimize the impact of particle size on the levetiracetam release rate, a disintegrant was added intra- and extra-granularly. Although the resulting dissolution rate is somewhat slower than that of the commercial product, the product of present invention is found to be bio-equivalent to the marketed product in both fasting and food bio-equivalent studies.

CC[C@@H](C(N)=O)N1CCCC1=O [levetiracetam, (−)-(S)-(alpha)-ethyl-2-oxo-1-pyrrolidine acetamide]
Particle size: about 50 μm
